Source: patent US20200276186A1, “USE OF […] TREATING COCAINE ADDICTION, PRURITIS, AND SEIZURE DISORDERS” (PHOENIX […], INC., priority 2017, published 2020)

Tested on: patient with atopic dermatitis
Assay: Topical treatment of itching in atopic dermatitis
Format: in vivo
Conditions: human, indomethacin cream 7.5 mg/g at 75 μg/cm^2
Protocol: An aqueous solution (10-100 μg/ml) of a compound of Formula (I) is applied topically to the skin lesions on the arms or legs of a patient with atopic dermatitis which had caused severe itching (ranked as “+++” by the patient prior to treatment). The drug solution is applied on five spots with a volume of about 50 μl per 10 cm^2, which was equivalent to a topical dose of […]. As a control, indomethacin cream (concentration of 7.5 mg/g) applied at a dose of 75 μg/cm^2 in the same manner. Itching intensity is evaluated immediately after treatment, 5 minutes after treatment and at hourly time points for several hours following treatment. […] Itch relief typically continues for several hours following treatment.

## COc1ccc2c(c1)c(CC(=O)O)c(C)n2C(=O)c1ccc(Cl)cc1 [indomethecin, indomethacin]
  Effect on itch (control): reduces but fails to eliminate itch
